Source: the supplement of paper PMC11962398

What was measured:
[1] = compound: T1, C[C@H]1CNCCN1c1nccc(-c2noc3c2CCC[C@@]32CCCc3sc(N)c(C#N)c32)n1 [BI-2493]; conditions: 5 days
Method: (§1)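 PRISM pooled barcoded cancer cell line viability screen (Broad Institute) with BI-2493 at 8 doses in threefold dilutions from 0.00457 to 10 µmol/L, 5-day treatment; curves fitted per cell line. IC50 is undefined (placeholder) for resistant lines. AUC is capped at 1, and sensitivity is reported as 1 − AUC.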

[2] = compound: T1, BI-2493; assay: 1 - AUC of viability dose-response curve (sensitivity) (fraction); higher = more sensitive; conditions: 5 days
Method: as §1

Test System	IC50 of cell viability [1]	1 - AUC of viability dose-response curve [2]
CAOV3_OVARY	> 10 µM	0.0615
CAPAN2_PANCREAS	1.2 µM	0.303
CAS1_CENTRAL_NERVOUS_SYSTEM	9.1 µM	0.0158
CASKI_CERVIX	8.68 µM	0.0572
CCFSTTG1_CENTRAL_NERVOUS_SYSTEM	> 10 µM	0.00118
CCK81_LARGE_INTESTINE	6.18 µM	0.0958
CCLP1_BILIARY_TRACT	7.32 µM	0.0617
CCSW1_BILIARY_TRACT	5.45 µM	0.14
CFPAC1_PANCREAS	4.12 µM	0.15
CH157MN_CENTRAL_NERVOUS_SYSTEM	8.61 µM	0.0235
CHAGOK1_LUNG	4.47 µM	0.173
CHL1_SKIN	4.96 µM	0.14
CHLA06ATRT_SOFT_TISSUE	7.12 µM	0.141
CHLA15_AUTONOMIC_GANGLIA	5.41 µM	0.187
CHLA57_BONE	3.06 µM	0.211
CHLA200_CENTRAL_NERVOUS_SYSTEM	9.58 µM	0.0104
CHP212_AUTONOMIC_GANGLIA	9.9 µM	0.00818
CJM_SKIN	5.39 µM	0.11
CL11_LARGE_INTESTINE	5.92 µM	0.117
CL34_LARGE_INTESTINE	> 10 µM	0.00172
CMLT1_HAEMATOPOIETIC_AND_LYMPHOID_TISSUE	4.55 µM	0.129
COGN278_AUTONOMIC_GANGLIA	7.86 µM	0.0701
COLO320_LARGE_INTESTINE	7.35 µM	0.057
COLO668_LUNG	5.95 µM	0.103
COLO679_SKIN	4.47 µM	0.146

Test System	IC50 of cell viability [1]	1 - AUC of viability dose-response curve [2]
COLO680N_OESOPHAGUS	8.49 µM	0.0719
COLO741_SKIN	9.66 µM	0.00696
COLO783_SKIN	5.22 µM	0.176
COLO792_SKIN	7.62 µM	0.221
COLO800_SKIN	7.65 µM	0.0454
CORL23_LUNG	5.82 µM	0.0991
CORL88_LUNG	4.54 µM	0.143
CORL105_LUNG	> 10 µM	0.157
CORL279_LUNG	7.86 µM	0.134
COV318_OVARY	> 10 µM	0.0643
COV362_OVARY	> 10 µM	0.00606
COV434_OVARY	3.6 µM	0.191
COV644_OVARY	7.18 µM	0.157
CW2_LARGE_INTESTINE	8.55 µM	0.071
CW9019_SOFT_TISSUE	3.99 µM	0.111
DAOY_CENTRAL_NERVOUS_SYSTEM	9.62 µM	0.0237
DBTRG05MG_CENTRAL_NERVOUS_SYSTEM	7.98 µM	0.0396
DETROIT562_UPPER_AERODIGESTIVE_TRACT	2.81 µM	0.18
DKMG_CENTRAL_NERVOUS_SYSTEM	4.05 µM	0.112
DL_SOFT_TISSUE	4.57 µM	0.192
DMS53_LUNG	6.38 µM	0.114
DMS79_LUNG	> 10 µM	0.0188
DMS273_LUNG	2.81 µM	0.265
DND41_HAEMATOPOIETIC_AND_LYMPHOID_TISSUE	4.59 µM	0.156
DOTC24510_CERVIX	6.38 µM	0.0765

Test System	IC50 of cell viability [1]	1 - AUC of viability dose-response curve [2]
DU145_PROSTATE	> 10 µM	0.172
DU4475_BREAST	2.96 µM	0.151
DV90_LUNG	0.856 µM	0.308
EB1_HAEMATOPOIETIC_AND_LYMPHOID_TISSUE	9.47 µM	0.0219
EBC1_LUNG	6.97 µM	0.0696
ECC2_BILIARY_TRACT	> 10 µM	< 0
ECC10_STOMACH	4.51 µM	0.0829
ECGI10_OESOPHAGUS	4.75 µM	0.15
EFM19_BREAST	8.2 µM	0.0426
EFM192A_BREAST	> 10 µM	0.0526
EFO21_OVARY	> 10 µM	0.106
EFO27_OVARY	9.28 µM	0.167
EKVX_LUNG	7.44 µM	0.146
EM2_HAEMATOPOIETIC_AND_LYMPHOID_TISSUE	4.85 µM	0.207
EMTOKA_ENDOMETRIUM	4.31 µM	0.0999
EN_ENDOMETRIUM	9.54 µM	0.0294
EOL1_HAEMATOPOIETIC_AND_LYMPHOID_TISSUE	0.77 µM	0.355
ES2_OVARY	9.51 µM	0.00984
ESS1_ENDOMETRIUM	1.43 µM	0.362
EW8_BONE	4.5 µM	0.0935
EWS502_BONE	3.56 µM	0.177
FADU_UPPER_AERODIGESTIVE_TRACT	6.09 µM	0.102
FLO1_OESOPHAGUS	4.86 µM	0.0758
FTC133_THYROID	> 10 µM	0.0578
G292CLONEA141B1_BONE	> 10 µM	0.0653
